# Values of other authors in US11622958B2, “Bifunctional prodrugs” (GEORG-AUGUST-UNIVERSITÄT GÖTTINGEN STIFTUNG ÖFFENTLICHEN …, priority 2015, dated 2023).
# What was measured:
# [1] = not given; remark: listed apart in the source
structure (smiles),measurement,setting,value
COc1c(O)c2c(c3cc(C(=O)N4CCc5c4c(O)c(OC)c4[nH]c(C(=O)N6CC7CC78C6=CC(=O)c6[nH]cc(C)c68)cc54)[nH]c13)CCN2C(N)=O (centres unmarked) [CC-1065],IC50,,20 pM
same,hepatotoxicity in animal experiments,[1],delayed lethal hepatotoxicity
